Reference: patent publication US7504400B2, “MTP inhibiting aryl piperydines or piperazines substituted with 5-membered heterocycles” (Janssen Pharmaceutica N.V., priority 2004, dated 2009)

Test system: Secretion of ApoB
Assay: Quantification of the secretion of ApoB in HepG2 cells
Type: cell-based
Conditions: Homo sapiens, HepG2, 24 h, 24 hours of incubation with test compound, immunoprecipitation of apoB from medium, read-out: pIC50 value (=-log IC50 value), secretion of ApoB (converted)
Summary of the method: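 At 70% confluency, HepG2 cells in MEM with 10% FCS received compound or DMSO carrier (0.4% final) for 24 h. Secreted apoB in cleared medium immunoprecipitated with sheep anti-apoB then rabbit anti-sheep antibody (24 h each, 8° C); pellet radioactivity counted by liquid scintillation; IC50 expressed as pIC50.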

Row | IC50 [nM] | Compound
1 | 31.6 to 316 | CC(=O)N1CCc2ccc(NC(=O)C(c3ccccc3)N3CCN(c4ccc(-n5cnn(C(C)C)c5=O)cc4)CC3)cc21 (stereo not shown) [Compound 202]
2 | < 31.6 | Cc1cc(N2CCN(C(C(=O)Nc3ccc4c(c3)CCC4)c3ccccc3)CC2)ccc1-n1cnn(C(C)C)c1=O (stereo not shown) [Compound 218]
3 | 316 to 3160 | CC(C)NC(=O)C(c1ccccc1)C1CCN(c2ccc(-n3cnn(CC4CC4)c3=O)cc2)CC1 (stereo not shown) [Compound 91]
4 | 316 to 3160 | COc1ccccc1NC(=O)C(c1ccccc1)N1CCN(c2ccc(-n3cnn(C(C)C)c3=O)cc2)CC1 (stereo not shown) [Compound 185]
5 | 316 to 3160 | CCCNC(=O)C(c1ccccc1)N1CCN(c2ccc(-n3c(-c4ccccc4)nn(C(C)C)c3=O)cc2)CC1 (stereo not shown) [Compound 32]
6 | 31.6 to 316 | CCOC(=O)C(c1ccccc1)N1CCC(c2ccc(-n3ccn([C@H](C)C4CCCCC4)c3=O)cc2)CC1 (stereo partly shown) [Compound 296]
7 | 316 to 3160 | CCNC(=O)C(c1ccccc1)N1CCN(c2ccc(-n3c(-c4ccccc4)nn(-c4ccccc4)c3=O)cc2)CC1 (stereo not shown) [Compound 28]
8 | 316 to 3160 | CC(C)CNC(=O)C(CN1CCN(c2ccc(-n3cnn(C(C)C)c3=O)cc2)CC1)c1ccccc1 (stereo not shown) [Compound 107]
9 | 316 to 3160 | CCOC(=O)C(CN1CCN(c2ccc(-n3cnn(C(C)C)c3=O)cc2)CC1)c1ccccc1 (stereo not shown) [Compound 138]
10 | 316 to 3160 | CCOC(=O)C(c1ccccc1)N1CCC(c2ccc(-n3ccn([C@@H](C)c4ccc(C)cc4)c3=O)cc2)CC1 (stereo partly shown) [Compound 234]
11 | 31.6 to 316 | COC(=O)C(c1ccccc1)(c1ccccc1)N1CCN(c2ccc(-n3cnn(C(C)C)c3=O)cc2)CC1 [Compound 173]
12 | 316 to 3160 | CCOC(=O)[C@@H](c1ccccc1)N1CCN(c2ccc(-n3ccn([C@@H](C)c4cc(C(F)(F)F)cc(C(F)(F)F)c4)c3=O)cc2)CC1 (relative stereo) [Compound 274]
13 | 316 to 3160 | COC(=O)c1ccc(CNC(=O)C(c2ccccc2)N2CCN(c3ccc(-n4cnn(C(C)c5ccccc5)c4=O)cc3)CC2)cc1 (stereo not shown) [Compound 294]
14 | 31.6 to 316 | CC(C)n1ncn(-c2ccc(N3CCN(C(C(=O)Nc4ccc5c(c4)-c4ccccc4C5)c4ccccc4)CC3)cc2)c1=O (stereo not shown) [Compound 197]
15 | 31.6 to 316 | CCC(C)n1ncn(-c2ccc(N3CCN(C(C(=O)NC(C)C)c4ccccc4)CC3)cc2)c1=O (stereo not shown) [Compound 21]
16 | 316 to 3160 | CCOC(=O)[C@@H](c1ccccc1)N1CCN(c2ccc(-n3ccn([C@H](C)c4ccc(F)cc4)c3=O)cc2)CC1 (relative stereo) [Compound 273]
17 | 31.6 to 316 | CC(C)n1ncn(-c2ccc(C3CCN(C(C(=O)NCc4ccccc4)c4ccccc4)CC3)cc2)c1=O (stereo not shown) [Compound 20]
18 | 316 to 3160 | CCOC(=O)[C@H](c1ccccc1)N1CCN(c2ccc(-n3ccn([C@@H](C)c4ccccc4F)c3=O)cc2)CC1 (relative stereo) [Compound 272]
19 | 31.6 to 316 | CCNC(=O)C(CN1CCN(c2ccc(-n3cnn(C(C)C)c3=O)cc2)CC1)c1ccccc1 (stereo not shown) [Compound 101]
20 | 316 to 3160 | CC(c1ccccc1)n1ncn(-c2ccc(N3CCN(C(C(=O)Nc4ccc5c(c4)CCC5)c4ccccc4)CC3)cc2)c1=O (stereo not shown) [Compound 208]

The remaining lines, values behind:

Row | Compound | IC50 [nM]
21 | CCOC(=O)c1cc(NC(=O)C(Cc2ccccc2)C2CCN(c3ccc(-n4cnn(C(C)C)c4=O)cc3)CC2)ccc1C (stereo not shown) [Compound 374] | 316 to 3160
22 | COC(=O)CCc1csc(NC(=O)C(c2ccccc2)N2CCC(c3ccc(-n4cnn(C(C)C)c4=O)cc3)CC2)n1 (stereo not shown) [Compound 352] | 316 to 3160
23 | CCOC(=O)CNC(=O)C(c1ccccc1)N1CCN(c2ccc(-n3cnn(C(C)C)c3=O)cc2)CC1 (stereo not shown) [Compound 66] | 31.6 to 316
24 | CCOC(=O)C(c1ccccc1)N1CCC(c2ccc(-n3ccn([C@H](C)c4ccccc4)c3=O)cc2)CC1 (stereo partly shown) [Compound 227] | 31.6 to 316
25 | CCC(C)n1ncn(-c2ccc(N3CCN(C(C(=O)NCc4ccccc4)c4ccccc4)CC3)cc2)c1=O (stereo not shown) [Compound 22] | 31.6 to 316
26 | CCOC(=O)C(c1ccccc1)N1CCC(c2ccc(-n3ccn([C@@H](C)c4ccc5ccccc5c4)c3=O)cc2)CC1 (stereo partly shown) [Compound 231] | 316 to 3160
27 | CCOC(=O)C(c1ccccc1)N1CCC(c2ccc(-n3ccn([C@@H](COC)c4ccccc4)c3=O)cc2)CC1 (stereo partly shown) [Compound 240] | 316 to 3160
28 | COC(=O)C(c1ccccc1)N1CCN(c2ccc(-n3c(-c4ccccc4)nn(C(C)C)c3=O)cc2)CC1 (stereo not shown) [Compound 35] | 316 to 3160
29 | CC(C)n1ncn(-c2ccc(N3CCN(C(C(=O)NC4CC4)c4ccccc4)CC3)cc2)c1=O (stereo not shown) [Compound 81] | 316 to 3160
30 | CC(C)n1ncn(-c2ccc(N3CCN(C(C(=O)NCC(C)(c4ccccc4)c4ccccc4)c4ccccc4)CC3)cc2)c1=O (stereo not shown) [Compound 68] | 316 to 3160
31 | CCOC(=O)CC1CCN(c2ccc(-n3cnn(C(C)c4ccccc4)c3=O)cc2)CC1 (stereo not shown) [Compound 386] | 316 to 3160
32 | CCOC(=O)c1cc(NC(=O)C(c2ccccc2)C2CCN(c3ccc(-n4cnn(C(C)C)c4=O)cc3)CC2)ccc1C (stereo not shown) [Compound 370] | 31.6 to 316
33 | CCCCCNC(=O)C(CN1CCN(c2ccc(-n3cnn(C(C)C)c3=O)cc2)CC1)c1ccccc1 (stereo not shown) [Compound 109] | 31.6 to 316
34 | COC(=O)C(c1cccc(Cl)c1)N1CCC(c2ccc(-n3cnn(C(C)C)c3=O)cc2)CC1 (stereo not shown) [Compound 320] | 316 to 3160
35 | CC(C)n1ncn(-c2ccc(N3CCN(C(C(=O)Nc4cccc(C(F)(F)F)c4)c4ccccc4)CC3)cc2)c1=O (stereo not shown) [Compound 58] | 31.6 to 316
36 | Cc1cnc(NC(=O)C(c2ccccc2)N2CCN(c3ccc(-n4cnn(C(C)C)c4=O)cc3)CC2)s1 (stereo not shown) [Compound 125] | 31.6 to 316
37 | CCOC(=O)C(c1ccccc1)C1CCN(c2ccc(-n3ccn([C@H](C)c4cccc(OC)c4)c3=O)cc2)CC1 (stereo partly shown) [Compound 257] | 316 to 3160
38 | CCOC(=O)[C@H](c1ccccc1)N1CCN(c2ccc(-n3ccn([C@H](C)c4ccccc4F)c3=O)cc2)CC1 (stereo in doubt) [Compound 271] | 31.6 to 316
39 | CC(C)n1ncn(-c2ccc(N3CCN(C(C(=O)NCc4cccs4)c4ccccc4)CC3)cc2)c1=O (stereo not shown) [Compound 75] | 316 to 3160
40 | CC(C)N1CCN(c2ccc(N3CCN(C(C(=O)Nc4ccc5c(c4)CCC5)c4ccccc4)CC3)cc2)C1=O (stereo not shown) [Compound 203] | < 31.6
41 | CCCOC(=O)C(c1ccccc1)N1CCN(c2ccc(-n3cnn(C(C)C)c3=O)cc2)CC1 (stereo not shown) [Compound 38] | 316 to 3160
42 | COC(=O)C(c1cccc(Cl)c1)N1CCN(c2ccc(-n3cnn(C(C)C)c3=O)cc2)CC1 (stereo not shown) [Compound 326] | 316 to 3160
43 | CCCOC(=O)C(CN1CCN(c2ccc(-n3cnn(C(C)C)c3=O)cc2)CC1)c1ccccc1 (stereo not shown) [Compound 41] | 316 to 3160
44 | CC(C)n1ncn(-c2ccc(N3CCN(CC(C(=O)NCc4ccccc4)c4ccccc4)CC3)cc2)c1=O (stereo not shown) [Compound 130] | 316 to 3160
45 | CCCCCNC(=O)C(c1ccccc1)N1CCN(c2ccc(-n3cnn(C(C)CC)c3=O)cc2)CC1 (stereo not shown) [Compound 96] | 31.6 to 316
46 | CCNC(=O)C(c1ccccc1)N1CCN(c2ccc(-n3c(-c4ccccc4)nn(C(C)C)c3=O)cc2)CC1 (stereo not shown) [Compound 31] | 316 to 3160
47 | O=C(NCc1ccccc1)C(c1ccccc1)C1CCN(c2ccc(-n3cnn(Cc4ccccc4)c3=O)cc2)CC1 (stereo not shown) [Compound 158] | 31.6 to 316
48 | CCCC(C(=O)OCC)N1CCN(c2ccc(-n3cnn(C(C)C)c3=O)cc2)CC1 (stereo not shown) [Compound 9] | 316 to 3160
49 | CCOC(=O)C(c1ccccc1)C1CCN(c2ccc(-n3ccn([C@@H](C)C4CCCCC4)c3=O)cc2)CC1 (stereo partly shown) [Compound 261] | 31.6 to 316
